# Data published in patent publication US20230089368A1, “POLYAROMATIC UREA DERIVATIVES AND THEIR USE IN THE TREATMENT OF MUSCLE DISEASES” (ANAGENESIS BIOTECHNOLOGIES S.A.S., priority 2019, published 2023).
# Where a name gives a salt, the structure may show the parent alone.
# Tests used:
# [1] = tested on: muscle progenitors (hMP) from DMD hiPSC or WT hiPSC; assay: Myotube assay: myogenic activity (total myotube area per well); type: cell-based, human; conditions: Homo sapiens, 72 h; myotube assay, compounds incubated 3 days; read-out: MA (normalized Myotube Area, efficacy)
# How it was run: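 DMD or WT hiPSC-derived muscle progenitors plated on collagen I in K5 medium with 5 μM Y-27632, treated with compound (1.5 nM–30 μM) for 3 days at 37° C. Cells were fixed, stained for alpha-actinin and imaged for total myotube area per well. EC50 and normalized myotube area (MA) taken from duplicate-averaged data.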
# [2] = tested on: satellite-like cells (Pax7-positive cells) in hMP; assay: Myotube assay: Pax7-positive (satellite-like) cell quantification; type: cell-based, human; design: key to Pax7% (pool of Pax7-positive cells) / Pax7: −: Depletes the pool of cells, while positively affects the myotubes; +: Maintains or increases the pool of cells, with at least 1 of the highest concentration known to be cytotoxic; ++: Maintains or increases the pool of cells, without any toxicity; conditions: myotube assay, compounds incubated 3 days
# How it was run: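 DMD hiPSC-derived muscle progenitors (hMP) proliferated 4 days, then plated on collagen I in K5 medium with 5 μM Y-27632. Compound added at 1.5 nM–30 μM for 3 days at 37° C, then cells fixed and immunostained. Pax7-positive cells counted as percentage of total nuclei, duplicates averaged.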
SMILES,Emax [1] [%],Pax7% (pool of Pax7-positive cells) [2]
"CSc1cc(Oc2ccnc3[nH]c(=O)cnc23)ccc1NC(=O)Nc1cc(C(C)(C)C)nn1-c1ccc(C#N)cc1 [(cc), 1-(3-(tert-butyl)-1-(4-cyanophenyl)-1H-pyrazol-5-yl)-3-(2-(methylthio)-4-((3-oxo-3,4-dihydropyrido[2,3-b]pyrazin-8-yl)oxy)phenyl)urea]",≥ 75,+
"CSc1cc(Oc2ccnc3[nH]c(=O)cnc23)ccc1NC(=O)Nc1cc(C(C)(C)C)nn1-c1ccc(C)c(C)c1 [(cd), 1-(3-(tert-butyl)-1-(3,4-dimethylphenyl)-1H-pyrazol-5-yl)-3-(2-(methylthio)-4-((3-oxo-3,4-dihydropyrido[2,3-b]pyrazin-8-yl)oxy)phenyl)urea]",≥ 75,++
"CSc1cc(Oc2ccnc3[nH]c(=O)cnc23)ccc1NC(=O)Nc1cc(C(C)(C)C)nn1-c1ccc(OCCN2CCCCC2)cc1 [(ce), 1-(3-(tert-butyl)-1-(4-(2-(piperidin-1-yl)ethoxy)phenyl)-1H-pyrazol-5-yl)-3-(2-(methylthio)-4-((3-oxo-3,4-dihydropyrido[2,3-b]pyrazin-8-yl)oxy)phenyl)urea]",≥ 75,+
"CSc1cc(Oc2ccnc3[nH]c(=O)cnc23)ccc1NC(=O)Nc1cc(C(C)(C)C)nn1-c1ccc(OCCN2CCOCC2)cc1 [(cf), 1-(3-(tert-butyl)-1-(4-(2-morpholinoethoxy)phenyl)-1H-pyrazol-5-yl)-3-(2-(methylthio)-4-((3-oxo-3,4-dihydropyrido[2,3-b]pyrazin-8-yl)oxy)phenyl)urea]",≥ 75,−
"CSc1cc(Oc2ccnc3c2CCC(=O)N3)ccc1NC(=O)Nc1cncc(C(F)(F)F)c1 [(cg), 1-(2-(methylthio)-4-((7-oxo-5,6,7,8-tetrahydro-1,8-naphthyridin-4-yl)oxy)phenyl)-3-(5-(trifluoromethyl)pyridin-3-yl)urea]",≥ 75,−
"CSc1cc(Oc2ccnc(N(CCN(C)C)C(=O)OC(C)(C)C)c2)ccc1NC(=O)Nc1cc(C(C)(C)C)nn1-c1ccccc1 [(ch), Tert-Butyl (4-(4-(3-(3-(tert-butyl)-1-phenyl-1H-pyrazol-5-yl)ureido)-3-(methylthio)phenoxy)pyridin-2-yl)(2-(dimethylamino)ethyl)carbamate]",50 to 75,+
"CSc1cc(Oc2ccnc3[nH]c(=O)cnc23)ccc1NC(=O)Nc1nnc(C(C)(C)C)o1 [(cj), 1-(5-(tert-butyl)-1,3,4-oxadiazol-2-yl)-3-(2-(methylthio)-4-((3-oxo-3,4-dihydropyrido[2,3-b]pyrazin-8-yl)oxy)phenyl)urea]",≥ 75,+
"CSc1cc(Oc2ccnc(NCCN(C)C)c2)ccc1NC(=O)Nc1cc(C(C)(C)C)nn1-c1ccccc1 [(ck), 1-(3-(tert-butyl)-1-phenyl-1H-pyrazol-5-yl)-3-(4-((2-((2-(dimethylamino)ethyl)amino)pyridin-4-yl)oxy)-2-(methylthio)phenyl)urea Hydrochloride]",≥ 75,+
"CSc1cc(Oc2ccnc3[nH]c(=O)cnc23)ccc1NC(=O)Nc1cc(C(C)(C)C)nn1-c1ccc(C)c(Cl)c1 [(cl), 1-(3-(tert-butyl)-1-(3-chloro-4-methylphenyl)-1H-pyrazol-5-yl)-3-(2-(methylthio)-4-((3-oxo-3,4-dihydropyrido[2,3-b]pyrazin-8-yl)oxy)phenyl)urea]",≥ 75,+
"CSc1cc(Oc2ccnc3[nH]c(=O)cnc23)ccc1NC(=O)Nc1cc(C(C)(C)C)nn1-c1ccc(F)c(Cl)c1 [(cm), 1-(3-(tert-butyl)-1-(3-chloro-4-fluorophenyl)-1H-pyrazol-5-yl)-3-(2-(methylthio)-4-((3-oxo-3,4-dihydropyrido[2,3-b]pyrazin-8-yl)oxy)phenyl)urea]",≥ 75,+
"CSc1cc(Oc2ccnc(C(=O)Nc3ccccc3)c2)ccc1NC(=O)Nc1cc(C(C)(C)C)nn1-c1ccccc1 [(co), 4-(4-(3-(3-(tert-butyl)-1-phenyl-1H-pyrazol-5-yl)ureido)-3-(methylthio)phenoxy)-N-phenylpicolinamide]",25 to 50,++
"CC(C)(C)c1cc(NC(=O)Nc2ccc(Oc3ccnc4[nH]c(=O)cnc34)c(OC(F)(F)F)c2)n(-c2ccccc2)n1 [(cp), 1-(3-(tert-butyl)-1-phenyl-1H-pyrazol-5-yl)-3-(4-((3-oxo-3,4-dihydropyrido[2,3-b]pyrazin-8-yl)oxy)-3-(trifluoromethoxy)phenyl)urea]",50 to 75,+
"CC(C)(C)c1cc(NC(=O)Nc2cc(Oc3ccnc4[nH]c(=O)cnc34)ccc2F)n(-c2ccccc2)n1 [(cq), 1-(3-(tert-butyl)-1-phenyl-1H-pyrazol-5-yl)-3-(2-fluoro-5-((3-oxo-3,4-dihydropyrido[2,3-b]pyrazin-8-yl)oxy)phenyl)urea]",≥ 75,++
"CSc1cc(Oc2ccnc3[nH]c(=O)cnc23)ccc1NC(=O)Nc1cc(C(C)(C)C)nn1-c1ccc(OCCCN(C)C)cc1 [(cr), 1-(3-(tert-butyl)-1-(4-(3-(dimethylamino)propoxy)phenyl)-1H-pyrazol-5-yl)-3-(2-(methylthio)-4-((3-oxo-3,4-dihydropyrido[2,3-b]pyrazin-8-yl)oxy)phenyl)urea]",≥ 75,+
"CC(C)(C)c1cc(NC(=O)Nc2ccc(C(=O)c3ccncc3)cc2)n(-c2ccccc2)n1 [(cs), 1-(3-(tert-butyl)-1-phenyl-1H-pyrazol-5-yl)-3-(4-isonicotinoylphenyl)urea]",25 to 50,+
"CSc1cc(Oc2ccnc3c2OCC(=O)N3)ccc1NC(=O)Nc1cc(C(C)(C)C)nn1-c1ccccc1 [(ct), 1-(3-(tert-butyl)-1-phenyl-1H-pyrazol-5-yl)-3-(2-(methylthio)-4-((3-oxo-3,4-dihydro-2H-pyrido[3,2-b][1,4]oxazin-8-yl)oxy)phenyl)urea]",≥ 75,+
"CC(C)(C)c1cnc(NC(=O)Nc2ccc(Oc3ccnc4c3CCC(=O)N4)c3ccccc23)s1 [(cu), 1-(5-(tert-butyl)thiazol-2-yl)-3-(4-((7-oxo-5,6,7,8-tetrahydro-1,8-naphthyridin-4-yl)oxy)naphthalen-1-yl)urea]",≥ 75,++
"CCOC(=O)Nc1cc(Oc2ccc(NC(=O)Nc3cc(C(C)(C)C)nn3-c3ccccc3)c(SC)c2)ccn1 [(cv), Ethyl (4-(4-(3-(3-(tert-butyl)-1-phenyl-1H-pyrazol-5-yl)ureido)-3-(methylthio)phenoxy)pyridin-2-yl)carbamate]",≥ 75,+
"CC(C)(C)c1cc(NC(=O)Nc2cccc(Oc3ccnc4[nH]c(=O)cnc34)c2F)n(-c2ccccc2)n1 [(cw), 1-(3-(tert-butyl)-1-phenyl-1H-pyrazol-5-yl)-3-(2-fluoro-3-((3-oxo-3,4-dihydropyrido[2,3-b]pyrazin-8-yl)oxy)phenyl)urea]",≥ 75,++
"CSc1cc(Oc2ccnc(NC(=O)OCc3ccccc3)c2)ccc1NC(=O)Nc1cc(C(C)(C)C)nn1-c1ccccc1 [(cx), Benzyl (4-(4-(3-(3-(tert-butyl)-1-phenyl-1H-pyrazol-5-yl)ureido)-3-(methylthio)phenoxy)pyridin-2-yl)carbamate]",≥ 75,+
"CSc1cc(Oc2ccnc3c2OCCN3)ccc1NC(=O)Nc1cc(C(C)(C)C)nn1-c1ccccc1 [(cy), 1-(3-(tert-butyl)-1-phenyl-1H-pyrazol-5-yl)-3-(4-((3,4-dihydro-2H-pyrido[3,2-b][1,4]oxazin-8-yl)oxy)-2-(methylthio)phenyl)urea]",≥ 75,+
"CSc1cc(Oc2ccnc3c2CCC(=O)N3)ccc1NC(=O)Nc1cc(C(C)(C)C)no1 [(cz), 1-(3-(tert-butyl)isoxazol-5-yl)-3-(2-(methylthio)-4-((7-oxo-5,6,7,8-tetrahydro-1,8-naphthyridin-4-yl)oxy)phenyl)urea]",≥ 75,+
"O=C(Nc1ccc(Oc2ccnc3[nH]c(=O)cnc23)cc1F)Nc1cc(C2(C(F)(F)F)CC2)nn1-c1ccccc1 [(d), 1-(2-fluoro-4-((3-oxo-3,4-dihydropyrido[2,3-b]pyrazin-8-yl)oxy)phenyl)-3-(1-phenyl-3-(1-(trifluoromethyl)cyclopropyl)-1H-pyrazol-5-yl)urea]",50 to 75,+
"CCOC(=O)Nc1cc(Oc2ccc(NC(=O)Nc3cc(C(C)(C)C)nn3-c3ccccc3)c3ccccc23)ccn1 [(da), Ethyl (4-((4-(3-(3-(tert-butyl)-1-phenyl-1H-pyrazol-5-yl)ureido)naphthalen-1-yl)oxy)pyridin-2-yl)carbamate]",≥ 75,+
"CCOC(=O)Nc1cc(Oc2ccc(NC(=O)Nc3cc(C(C)(C)C)no3)c3ccccc23)ccn1 [(db), Ethyl (4-((4-(3-(3-(tert-butyl)isoxazol-5-yl)ureido)naphthalen-1-yl)oxy)pyridin-2-yl)carbamate]",≥ 75,+
"CCOC(=O)Nc1cc(Oc2ccc(NC(=O)Nc3ncc(C(C)(C)C)s3)c3ccccc23)ccn1 [(dc), Ethyl (4-((4-(3-(5-(tert-butyl)thiazol-2-yl)ureido)naphthalen-1-yl)oxy)pyridin-2-yl)carbamate]",≥ 75,+
